# Data as given in patent US20220304950A1, “[…] THE TREATMENT OF PATIENTS WITH MAJOR DEPRESSIVE DISORDER, INCLUDING SUICIDALITY” (JANSSEN PHARMACEUTICALS, INC., priority 2019, published 2022).
# Tested on: adult patients with MDD assessed to be at imminent risk for suicide
# Assay: Adverse events (TEAEs, SAEs), Study 1 (Example 4)
# Experimental: This is a randomized, double-blind, placebo-controlled, multicenter study to evaluate the efficacy of intranasal esketamine 84 mg compared with intranasal placebo in addition to comprehensive standard of care in reducing the symptoms of MDD, including suicidal ideation, in adult male and female patients who were assessed to be at imminent risk for suicide.
# The study consisted of a screening evaluation performed within 48 hours prior to the Day 1 intranasal dose, immediately followed by a 25-day double-blind treatment phase (Day 1 to 25), and a 65-day follow-up phase (Day 26 to Day 90). The total study duration for each subject was approximately 13 weeks.
# The study consisted of a screening evaluation performed within 24 to 48 hours prior to the Day 1 dose, immediately followed by a 25-day double-blind treatment phase (Day 1 to 25) with twice-weekly dosing sessions, and a 9-week follow up phase (Day 26 to Day 90). All participants received comprehensive SOC, including in-patient psychiatric hospitalization and the initiation or optimization of standard antidepressant medication (determined by the treating physician based on clinical judgment and practice guidelines).
# [1] = Esk 84 mg + SOC, double-blind phase
# [2] = Esk 84 mg + SOC, double-blind phase, listed as ESK
# [3] = Esk 84 mg + SOC, double-blind phase, listed as Esk
# [4] = Esk 84 mg + SOC, follow-up phase
smiles,measurement,setting,value
"CN[C@]1(c2ccccc2Cl)CCCCC1=O [esketamine, (S)-2-(2-chlorophenyl)-2-(methylamino)cyclohexanone]","SAEs: depression-related events, number","ESK+SOC, follow-up phase",3
same,"SAEs: suicidal ideation-related events, number","ESK+SOC, follow-up phase",7
same,"Serious TEAE Aggression, subjects n",[1],0
same,"Serious TEAE Depression suicidal, subjects %",[1],(1.8%)
same,"Serious TEAE Depression, subjects %",[1],(0.9%)
same,"Serious TEAE Depression, subjects n",[1],1
same,"Serious TEAE Diabetic ketoacidosis, subjects %",[1],(0.9%)
same,"Serious TEAE Diabetic ketoacidosis, subjects n",[1],1
same,"Serious TEAE Hepatobiliary disorders, subjects n",[1],0
same,"Serious TEAE Hypertransaminasaemia, subjects n",[1],0
same,"Serious TEAE Metabolism and nutrition disorders, subjects %",[1],(0.9%)
same,"Serious TEAE Metabolism and nutrition disorders, subjects n",[1],1
same,"Serious TEAE Psychiatric disorders, subjects n",[1],3
same,"Serious TEAE Suicidal ideation, subjects n",[1],0
same,"Serious TEAE Suicide attempt, subjects %",[1],(0.9%)
same,"Serious TEAE Suicide attempt, subjects n",[1],1
same,"Subjects with 1 or more TEAEs, %",[1],88.5%
same,"Subjects with related TEAEs, %",[1],(79.6%)
same,"Subjects with related severe TEAEs, %",[1],(6.2%)
same,"Subjects with serious TEAEs, %",[1],3.5%
same,"TEAE Anxiety, subjects %",[1],(5.3%)
same,"TEAE Anxiety, subjects n",[1],6
same,"TEAE Blood pressure increased, subjects %",[1],(16.8%)
same,"TEAE Blood pressure increased, subjects n",[1],19
same,"TEAE Constipation, subjects %",[1],(13.3%)
same,"TEAE Constipation, subjects n",[1],15
same,"TEAE Dissociation, subjects %",[1],29.2%
same,"TEAE Dissociation, subjects n",[1],33
same,"TEAE Dizziness postural, subjects %",[1],(5.3%)
same,"TEAE Dizziness postural, subjects n",[1],6
same,"TEAE Dizziness, subjects %",[1],35.4%
same,"TEAE Dizziness, subjects n",[1],40
same,"TEAE Dysgeusia, subjects n",[1],16
same,"TEAE Ear and labyrinth disorders, subjects %",[1],(8.0%)
same,"TEAE Ear and labyrinth disorders, subjects n",[1],9
same,"TEAE Eye disorders, subjects %",[1],(11.5%)
same,"TEAE Eye disorders, subjects n",[1],13
same,"TEAE Gastrointestinal disorders, subjects %",[1],(38.1%)
same,"TEAE Gastrointestinal disorders, subjects n",[1],43
same,"TEAE Headache, subjects n",[1],21
same,"TEAE Hypoaesthesia, subjects %",[1],(7.1%)
same,"TEAE Hypoaesthesia, subjects n",[1],8
same,"TEAE Insomnia, subjects %",[1],(6.2%)
same,"TEAE Insomnia, subjects n",[1],7
same,"TEAE Investigations, subjects %",[1],(24.8%)
same,"TEAE Investigations, subjects n",[1],28
same,"TEAE Nausea, subjects %",[1],20.4%
same,"TEAE Nausea, subjects n",[1],23
same,"TEAE Nervous system disorders, subjects %",[1],(68.1%)
same,"TEAE Nervous system disorders, subjects n",[1],77
same,"TEAE Psychiatric disorders, subjects %",[1],(45.1%)
same,"TEAE Psychiatric disorders, subjects n",[1],51
same,"TEAE Sedation, subjects %",[1],(6.2%)
same,"TEAE Sedation, subjects n",[1],7
same,"TEAE Somnolence, subjects n",[1],21
same,"TEAE Vertigo, subjects %",[1],(6.2%)
same,"TEAE Vertigo, subjects n",[1],7
same,"TEAE Vision blurred, subjects %",[1],(8.8%)
same,"TEAE Vision blurred, subjects n",[1],10
same,"TEAE Vomiting, subjects %",[1],(7.1%)
same,"TEAE Vomiting, subjects n",[1],8
same,"TEAE dysgeusia, subjects %",[1],(14.2%)
same,"TEAE headache, subjects %",[1],(18.6%)
same,"TEAE leading to discontinuation: Aggression, subjects n",[1],0
same,"TEAE leading to discontinuation: Atrioventricular block first degree, subjects n",[1],0
same,"TEAE leading to discontinuation: Blood pressure diastolic increased, subjects n",[1],0
same,"TEAE leading to discontinuation: Blood pressure increased, subjects %",[1],0.9%
same,"TEAE leading to discontinuation: Blood pressure increased, subjects n",[1],1
same,"TEAE leading to discontinuation: Cardiac disorders, subjects n",[1],0
same,"TEAE leading to discontinuation: Confusional state, subjects %",[1],0.9%
same,"TEAE leading to discontinuation: Confusional state, subjects n",[1],1
same,"TEAE leading to discontinuation: Dissociation, subjects %",[1],0.9%
same,"TEAE leading to discontinuation: Dissociation, subjects n",[1],1
same,"TEAE leading to discontinuation: Dizziness, subjects %",[1],0.9%
same,"TEAE leading to discontinuation: Dizziness, subjects n",[1],1
same,"TEAE leading to discontinuation: Hallucination, visual, subjects %",[1],0.9%
same,"TEAE leading to discontinuation: Hallucination, visual, subjects n",[1],1
same,"TEAE leading to discontinuation: Headache, subjects %",[1],0.9%
same,"TEAE leading to discontinuation: Headache, subjects n",[1],1
same,"TEAE leading to discontinuation: Hepatobiliary disorders, subjects n",[1],0
same,"TEAE leading to discontinuation: Hypertransaminasaemia, subjects n",[1],0
same,"TEAE leading to discontinuation: Hypoaesthesia, subjects %",[1],0.9%
same,"TEAE leading to discontinuation: Hypoaesthesia, subjects n",[1],1
same,"TEAE leading to discontinuation: Investigations, subjects %",[1],0.9%
same,"TEAE leading to discontinuation: Investigations, subjects n",[1],1
same,"TEAE leading to discontinuation: Nervous system disorders, subjects %",[1],2.7%
same,"TEAE leading to discontinuation: Nervous system disorders, subjects n",[1],3
same,"TEAE leading to discontinuation: Pharyngeal hypoaesthesia, subjects %",[1],0.9%
same,"TEAE leading to discontinuation: Pharyngeal hypoaesthesia, subjects n",[1],1
same,"TEAE leading to discontinuation: Psychiatric disorders, subjects %",[1],2.7%
same,"TEAE leading to discontinuation: Psychiatric disorders, subjects n",[1],3
same,"TEAE leading to discontinuation: Respiratory, thoracic and mediastinal disorders, subjects %",[1],0.9%
same,"TEAE leading to discontinuation: Respiratory, thoracic and mediastinal disorders, subjects n",[1],1
same,"TEAE leading to discontinuation: Sedation, subjects %",[1],0.9%
same,"TEAE leading to discontinuation: Sedation, subjects n",[1],1
same,"TEAE leading to discontinuation: Somnolence, subjects %",[1],0.9%
same,"TEAE leading to discontinuation: Somnolence, subjects n",[1],1
same,"TEAE leading to discontinuation: Suicidal ideation, subjects n",[1],0
same,"TEAE somnolence, subjects %",[1],(18.6%)
same,"Serious TEAE Depression suicidal, subjects n",[2],1
same,"Serious TEAE Psychiatric disorders, subjects %",[2],< 5%
same,"Subjects with severe TEAEs, %",[2],8.8%
same,"Serious TEAE Depression suicidal, subjects n",[3],2
same,"Serious TEAE Psychiatric disorders, subjects %",[3],(2.7%)
same,"Subjects with 1 or more TEAEs, %",[3],(88.5%)
same,"Subjects with serious TEAEs, %",[3],(3.5%)
same,"Subjects with severe TEAEs, %",[3],(8.8%)
same,"TEAE Dissociation, subjects %",[3],(29.2%)
same,"TEAE Dizziness, subjects %",[3],(35.4%)
same,"TEAE Nausea, subjects %",[3],(20.4%)
same,"Subjects with TEAEs leading to discontinuation of study agent, %","Esk 84 mg + SOC, double-blind phase, safety set",4.4%
same,"AE Anxiety, subjects %",[4],(3.0%)
same,"AE Anxiety, subjects n",[4],3
same,"AE Depression, subjects %",[4],(8.9%)
same,"AE Depression, subjects n",[4],9
same,"AE Headache, subjects %",[4],(5.9%)
same,"AE Headache, subjects n",[4],6
same,"AE Nervous system disorders, subjects %",[4],(11.9%)
same,"AE Nervous system disorders, subjects n",[4],12
same,"AE Psychiatric disorders, subjects %",[4],(28.7%)
same,"AE Psychiatric disorders, subjects n",[4],29
same,"AE Suicidal ideation, subjects %",[4],(5.0%)
same,"AE Suicidal ideation, subjects n",[4],5
same,"SAE Completed suicide, subjects %",[4],(1.0%)
same,"SAE Completed suicide, subjects n",[4],1
same,"SAE Depression suicidal, subjects %",[4],(5.0%)
same,"SAE Depression suicidal, subjects n",[4],5
same,"SAE Depression, subjects %",[4],(1.0%)
same,"SAE Depression, subjects n",[4],1
same,"SAE Depressive symptom, subjects %",[4],(1.0%)
same,"SAE Depressive symptom, subjects n",[4],1
same,"SAE Major depression, subjects %",[4],(1.0%)
same,"SAE Major depression, subjects n",[4],1
same,"SAE Musculoskeletal and connective tissue disorders, subjects n",[4],0
same,"SAE Psychiatric disorders, subjects %",[4],(12.9%)
same,"SAE Psychiatric disorders, subjects n",[4],13
same,"SAE Rhabdomyolysis, subjects n",[4],0
same,"SAE Suicidal ideation, subjects %",[4],(2.0%)
same,"SAE Suicidal ideation, subjects n",[4],2
same,"SAE Suicide attempt, subjects %",[4],(3.0%)
same,"SAE Suicide attempt, subjects n",[4],3
same,"Subjects with 1 or more AEs, %",[4],(48.5%)
same,"Subjects with AEs leading to death, %",[4],(1.0%)
same,"Subjects with serious AEs, %",[4],12.9%
same,"Subjects with severe AEs, %",[4],(5.9%)
same,"Subjects with serious AEs, %","Esk 84 mg + SOC, follow-up phase, listed as Esk",(12.9%)
same,Overall safety and tolerability (in words),intranasal ESK+SOC,safe and tolerated
